Data: US6995185B2, “Δ1-pyrrolines used as pesticides” (Bayer Cropscience AG, priority 2000, dated 2006)

assay: log P determination by HPLC on reversed-phase column (C 18), EEC directive 79/831 Annex V.A8; assay type: physicochemical; details: pH 2.3 (marked a), 0.1% aqueous phosphoric acid/acetonitrile, 43° C.
Method: The log P values given in the tables and Preparation Examples above are determined in accordance with EEC directive 79/831 Annex V.A8 by HPLC (High Performance Liquid Chromatography) using a reversed-phase column (C 18). Temperature: 43° C. In the acidic range, the determination is carried out at pH 2.3 using the mobile phases 0.1% aqueous phosphoric acid and acetonitrile; linear gradient from 10% acetonitrile to 90% acetonitrile (marked^a) in the table). In the neutral range, the determination is carried out at pH 7.5 using the mobile phases 0.01-molar aqueous phosphate buffer solution and acetonitrile; linear gradient from 10% acetonitrile to 90% acetonitrile (marked^b) in the table). Calibration is carried out using unbranched alkan-2-ones (having 3 to 16 carbon atoms) with known log P values (determination of the log P values by the retention times using linear interpolation between two successive alkanones).

log P | SMILES
6.28^a) | CC1CCC(OC(=O)[C@H]2CC(c3c(F)cccc3F)=NC2c2ccc(-c3ccc(OC(F)(F)F)cc3)cc2)CC1 (stereo partly drawn) [Example 49]

same assay, conditions: reversed-phase HPLC column (C 18), pH 2.3, pH 2.3 (marked a), 0.1% aqueous phosphoric acid/acetonitrile, 43° C.

chromatographic logP | SMILES
3.59 | O=C(OCc1cccnc1)[C@H]1CC(c2c(F)cccc2F)=NC1c1ccc(-c2ccc(OC(F)(F)F)cc2)cc1 (stereo partly drawn) [Example 54]
4.56 | CCCCN(C)C(=O)[C@H]1CC(c2c(F)cccc2F)=NC1c1ccc(-c2ccc(OC(F)(F)F)cc2)cc1 (stereo partly drawn) [Example 70]
5.31 | O=C(OCc1ccccc1)[C@H]1CC(c2c(F)cccc2F)=NC1c1ccc(-c2ccc(OC(F)(F)F)cc2)cc1 (stereo partly drawn) [Example 34]
4.18 | COc1ccccc1CNC(=O)[C@H]1CC(c2c(F)cccc2F)=NC1c1ccc(-c2ccc(OC(F)(F)F)cc2)cc1 (stereo partly drawn) [Example 94]
4.72 | Cc1cc(C)cc(CNC(=O)[C@H]2CC(c3c(F)cccc3F)=NC2c2ccc(-c3ccc(OC(F)(F)F)cc3)cc2)c1 (stereo partly drawn) [Example 96]
3.33 | COCCNC(=O)[C@H]1CC(c2c(F)cccc2F)=NC1c1ccc(-c2ccc(OC(F)(F)F)cc2)cc1 (stereo partly drawn) [Example 84]
5.55 | O=C(OC/C=C/c1ccccc1)[C@H]1CC(c2c(F)cccc2F)=NC1c1ccc(-c2ccc(OC(F)(F)F)cc2)cc1 (stereo partly drawn) [Example 31]
5.74 | CC(C)[C@H](C)OC(=O)[C@H]1CC(c2c(F)cccc2F)=NC1c1ccc(-c2ccc(OC(F)(F)F)cc2)cc1 (stereo partly drawn) [Example 55]
5.58 | O=C(OCc1cccc(Cl)c1)[C@H]1CC(c2c(F)cccc2F)=NC1c1ccc(-c2ccc(OC(F)(F)F)cc2)cc1 (stereo partly drawn) [Example 36]
3.94 | O=C(NCc1ccccc1)[C@H]1CC(c2c(F)cccc2F)=NC1c1ccc(-c2ccc(OC(F)(F)F)cc2)cc1 (stereo partly drawn) [Example 78]
4.08 | N#CCCOC(=O)[C@H]1CC(c2c(F)cccc2F)=NC1c1ccc(-c2ccc(OC(F)(F)F)cc2)cc1 (stereo partly drawn) [Example 25]
4.92 | CCCCCN(C)C(=O)[C@H]1CC(c2c(F)cccc2F)=NC1c1ccc(-c2ccc(OC(F)(F)F)cc2)cc1 (stereo partly drawn) [Example 71]
4.41 | O=C(NCc1ccc(Cl)cc1)[C@H]1CC(c2c(F)cccc2F)=NC1c1ccc(-c2ccc(OC(F)(F)F)cc2)cc1 (stereo partly drawn) [Example 81]
4.37 | Cc1ccc(CNC(=O)[C@H]2CC(c3c(F)cccc3F)=NC2c2ccc(-c3ccc(OC(F)(F)F)cc3)cc2)cc1 (stereo partly drawn) [Example 91]
4.46 | O=C(NCc1ccccc1Cl)[C@H]1CC(c2c(F)cccc2F)=NC1c1ccc(-c2ccc(OC(F)(F)F)cc2)cc1 (stereo partly drawn) [Example 79]
4.03 | CCCCNC(=O)[C@H]1CC(c2c(F)cccc2F)=NC1c1ccc(-c2ccc(OC(F)(F)F)cc2)cc1 (stereo partly drawn) [Example 61]
3.74 | CC(C)NC(=O)[C@H]1CC(c2c(F)cccc2F)=NC1c1ccc(-c2ccc(OC(F)(F)F)cc2)cc1 (stereo partly drawn) [Example 64]
4.87 | O=C(NCc1ccc(Cl)cc1Cl)[C@H]1CC(c2c(F)cccc2F)=NC1c1ccc(-c2ccc(OC(F)(F)F)cc2)cc1 (stereo partly drawn) [Example 93]
5.38 | CC(C)COC(=O)[C@H]1CC(c2c(F)cccc2F)=NC1c1ccc(-c2ccc(OC(F)(F)F)cc2)cc1 (stereo partly drawn) [Example 17]
3.49 | CCNC(=O)[C@H]1CC(c2c(F)cccc2F)=NC1c1ccc(-c2ccc(OC(F)(F)F)cc2)cc1 (stereo partly drawn) [Example 59]

chromatographic logP | SMILES
4.23 | O=C(NCc1ccc(F)cc1F)[C@H]1CC(c2c(F)cccc2F)=NC1c1ccc(-c2ccc(OC(F)(F)F)cc2)cc1 (stereo partly drawn) [Example 97]
5.65 | O=C(OCc1ccccc1Cl)[C@H]1CC(c2c(F)cccc2F)=NC1c1ccc(-c2ccc(OC(F)(F)F)cc2)cc1 (stereo partly drawn) [Example 35]
5.4 | CCC(C)OC(=O)[C@H]1CC(c2c(F)cccc2F)=NC1c1ccc(-c2ccc(OC(F)(F)F)cc2)cc1 (stereo partly drawn) [Example 16]
4.23 | N#CCOC(=O)[C@H]1CC(c2c(F)cccc2F)=NC1c1ccc(-c2ccc(OC(F)(F)F)cc2)cc1 (stereo partly drawn) [Example 29]
5.65 | CC(C)[C@@H](C)OC(=O)[C@H]1CC(c2c(F)cccc2F)=NC1c1ccc(-c2ccc(OC(F)(F)F)cc2)cc1 (stereo partly drawn) [Example 56]
3.94 | COC(=O)c1cnc(NC(=O)[C@H]2CC(c3c(F)cccc3F)=NC2c2ccc(-c3ccc(OC(F)(F)F)cc3)cc2)s1 (stereo partly drawn) [Example 88]
4.03 | COc1cccc(CNC(=O)[C@H]2CC(c3c(F)cccc3F)=NC2c2ccc(-c3ccc(OC(F)(F)F)cc3)cc2)c1OC (stereo partly drawn) [Example 95]
6.28 | O=C(OCC1CCCCC1)[C@H]1CC(c2c(F)cccc2F)=NC1c1ccc(-c2ccc(OC(F)(F)F)cc2)cc1 (stereo partly drawn) [Example 41]
5.19 | O=C(OCc1cccs1)[C@H]1CC(c2c(F)cccc2F)=NC1c1ccc(-c2ccc(OC(F)(F)F)cc2)cc1 (stereo partly drawn) [Example 43]
3.26 | CNC(=O)[C@H]1CC(c2c(F)cccc2F)=NC1c1ccc(-c2ccc(OC(F)(F)F)cc2)cc1 (stereo partly drawn) [Example 58]
5.65 | CCCCN(CCCC)C(=O)[C@H]1CC(c2c(F)cccc2F)=NC1c1ccc(-c2ccc(OC(F)(F)F)cc2)cc1 (stereo partly drawn) [Example 74]
6.11 | CCCCCCOC(=O)[C@H]1CC(c2c(F)cccc2F)=NC1c1ccc(-c2ccc(OC(F)(F)F)cc2)cc1 (stereo partly drawn) [Example 15]
4.18 | N#CCCCOC(=O)[C@H]1CC(c2c(F)cccc2F)=NC1c1ccc(-c2ccc(OC(F)(F)F)cc2)cc1 (stereo partly drawn) [Example 30]
5.84 | CCCCCOC(=O)[C@H]1CC(c2c(F)cccc2F)=NC1c1ccc(-c2ccc(OC(F)(F)F)cc2)cc1 (stereo partly drawn) [Example 20]
5.85 | O=C(OC1CCCCC1)[C@H]1CC(c2c(F)cccc2F)=NC1c1ccc(-c2ccc(OC(F)(F)F)cc2)cc1 (stereo partly drawn) [Example 19]
4.82 | O=C(OCc1ccc(Cl)nc1)[C@H]1CC(c2c(F)cccc2F)=NC1c1ccc(-c2ccc(OC(F)(F)F)cc2)cc1 (stereo partly drawn) [Example 47]
5.14 | O=C(OCc1ccsc1)[C@H]1CC(c2c(F)cccc2F)=NC1c1ccc(-c2ccc(OC(F)(F)F)cc2)cc1 (stereo partly drawn) [Example 44]
4.18 | CCN(CC)C(=O)[C@H]1CC(c2c(F)cccc2F)=NC1c1ccc(-c2ccc(OC(F)(F)F)cc2)cc1 (stereo partly drawn) [Example 72]
5.97 | O=C(OC1CCCc2ccccc21)[C@H]1CC(c2c(F)cccc2F)=NC1c1ccc(-c2ccc(OC(F)(F)F)cc2)cc1 (stereo partly drawn) [Example 51]
4.13 | O=C(OCc1ccccn1)[C@H]1CC(c2c(F)cccc2F)=NC1c1ccc(-c2ccc(OC(F)(F)F)cc2)cc1 (stereo partly drawn) [Example 53]

chromatographic logP | SMILES
4.67 | O=C(NCC1CCCCC1)[C@H]1CC(c2c(F)cccc2F)=NC1c1ccc(-c2ccc(OC(F)(F)F)cc2)cc1 (stereo partly drawn) [Example 82]
5.54 | CC(OC(=O)[C@H]1CC(c2c(F)cccc2F)=NC1c1ccc(-c2ccc(OC(F)(F)F)cc2)cc1)c1ccccc1 (stereo partly drawn) [Example 38]
6.54 | CC(OC(=O)[C@H]1CC(c2c(F)cccc2F)=NC1c1ccc(-c2ccc(OC(F)(F)F)cc2)cc1)C1CCCCC1 (stereo partly drawn) [Example 50]
4.46 | O=C(NCc1cccc(Cl)c1)[C@H]1CC(c2c(F)cccc2F)=NC1c1ccc(-c2ccc(OC(F)(F)F)cc2)cc1 (stereo partly drawn) [Example 80]
5.71 | O=C(OC1CCc2ccccc21)[C@H]1CC(c2c(F)cccc2F)=NC1c1ccc(-c2ccc(OC(F)(F)F)cc2)cc1 (stereo partly drawn) [Example 52]
5.41 | CCCCOC(=O)[C@H]1CC(c2c(F)cccc2F)=NC1c1ccc(-c2ccc(OC(F)(F)F)cc2)cc1 (stereo partly drawn) [Example 14]
4.77 | CC(C)(COC(=O)[C@H]1CC(c2c(F)cccc2F)=NC1c1ccc(-c2ccc(OC(F)(F)F)cc2)cc1)[N+](=O)[O-] (stereo partly drawn) [Example 32]
6.43 | CCCCCN(CCCCC)C(=O)[C@H]1CC(c2c(F)cccc2F)=NC1c1ccc(-c2ccc(OC(F)(F)F)cc2)cc1 (stereo partly drawn) [Example 75]
4.23 | CCCN(C)C(=O)[C@H]1CC(c2c(F)cccc2F)=NC1c1ccc(-c2ccc(OC(F)(F)F)cc2)cc1 (stereo partly drawn) [Example 69]
4.87 | O=C(OCc1ccoc1)[C@H]1CC(c2c(F)cccc2F)=NC1c1ccc(-c2ccc(OC(F)(F)F)cc2)cc1 (stereo partly drawn) [Example 28]
5.78 | CCC(CC)OC(=O)[C@H]1CC(c2c(F)cccc2F)=NC1c1ccc(-c2ccc(OC(F)(F)F)cc2)cc1 (stereo partly drawn) [Example 23]
5.48 | C=C(C)CCOC(=O)[C@H]1CC(c2c(F)cccc2F)=NC1c1ccc(-c2ccc(OC(F)(F)F)cc2)cc1 (stereo partly drawn) [Example 27]
5.78 | O=C(OCCCc1ccccc1)[C@H]1CC(c2c(F)cccc2F)=NC1c1ccc(-c2ccc(OC(F)(F)F)cc2)cc1 (stereo partly drawn) [Example 33]
4.37 | CCCCCNC(=O)[C@H]1CC(c2c(F)cccc2F)=NC1c1ccc(-c2ccc(OC(F)(F)F)cc2)cc1 (stereo partly drawn) [Example 62]
4.67 | CCCCCCNC(=O)[C@H]1CC(c2c(F)cccc2F)=NC1c1ccc(-c2ccc(OC(F)(F)F)cc2)cc1 (stereo partly drawn) [Example 63]
4.37 | COCCOC(=O)[C@H]1CC(c2c(F)cccc2F)=NC1c1ccc(-c2ccc(OC(F)(F)F)cc2)cc1 (stereo partly drawn) [Example 24]
4.03 | O=C(NCc1cccs1)[C@H]1CC(c2c(F)cccc2F)=NC1c1ccc(-c2ccc(OC(F)(F)F)cc2)cc1 (stereo partly drawn) [Example 85]
3.78 | O=C(Nc1nccs1)[C@H]1CC(c2c(F)cccc2F)=NC1c1ccc(-c2ccc(OC(F)(F)F)cc2)cc1 (stereo partly drawn) [Example 87]

same assay, conditions: reversed-phase HPLC column (C 18), pH 7.5, pH 7.5 (marked b), 0.01-molar aqueous phosphate buffer/acetonitrile, 43° C.

chromatographic logP | SMILES
5.77 | CC(C)[C@H](C)OC(=O)[C@H]1CC(c2c(F)cccc2F)=NC1c1ccc(-c2ccc(OC(F)(F)F)cc2)cc1 (stereo partly drawn) [Example 55]
5.47 | CC(C)COC(=O)[C@H]1CC(c2c(F)cccc2F)=NC1c1ccc(-c2ccc(OC(F)(F)F)cc2)cc1 (stereo partly drawn) [Example 17]
5.48 | CCC(C)OC(=O)[C@H]1CC(c2c(F)cccc2F)=NC1c1ccc(-c2ccc(OC(F)(F)F)cc2)cc1 (stereo partly drawn) [Example 16]
5.86 | CC(C)[C@@H](C)OC(=O)[C@H]1CC(c2c(F)cccc2F)=NC1c1ccc(-c2ccc(OC(F)(F)F)cc2)cc1 (stereo partly drawn) [Example 56]
6.18 | CCCCCCOC(=O)[C@H]1CC(c2c(F)cccc2F)=NC1c1ccc(-c2ccc(OC(F)(F)F)cc2)cc1 (stereo partly drawn) [Example 15]
5.91 | O=C(OC1CCCCC1)[C@H]1CC(c2c(F)cccc2F)=NC1c1ccc(-c2ccc(OC(F)(F)F)cc2)cc1 (stereo partly drawn) [Example 19]
5.49 | CCCCOC(=O)[C@H]1CC(c2c(F)cccc2F)=NC1c1ccc(-c2ccc(OC(F)(F)F)cc2)cc1 (stereo partly drawn) [Example 14]
